From ChEMBL document CHEMBL1136102, “Synthesis and antibacterial activity of oxazolidinone containing sulphonyl group” (2003) come the findings set out here.

≈ marks a conversion by molar mass, not a printed value.

What all share (type): functional
The subject of test [1] is Staphylococcus epidermidis. Description: In vitro antibacterial activity against Staphylococcus epidermidis.
The test system of another test is Streptococcus pneumoniae. As to the kind of experiment: In vitro antibacterial activity against Streptococcus pneumoniae.
Another test has as its system Staphylococcus hominis. As to the kind of experiment: In vitro antibacterial activity against Staphylococcus hominis.
Another test deals with Staphylococcus aureus. As to the kind of experiment: In vitro antibacterial activity against Staphylococcus aureus.
The test system of another test is Streptococcus. As to the kind of experiment: In vitro antibacterial activity against Streptococcus.

For `CC(=O)NC[C@H]1CN(c2ccc(N3CCN(S(=O)(=O)c4ccccc4NC(C)=O)CC3)c(F)c2)C(=O)O1`, the minimum inhibitory concentration (MIC) (in test [1]; against Streptococcus pneumoniae; in the test with Staphylococcus hominis; in the test with Staphylococcus aureus; against Streptococcus) was more than 64 µg/mL throughout.

As for `CC(=O)NC[C@H]1CN(c2ccc(N3CCN(S(C)(=O)=O)CC3)c(F)c2)C(=O)O1`, the minimal inhibitory concentration (MIC) in test [1] worked out at 0.5 µg/mL (≈ 1.21 µM); against Streptococcus pneumoniae, 2 µg/mL (≈ 4.83 µM); in the test with Staphylococcus hominis, 2 µg/mL (≈ 4.83 µM); against Staphylococcus aureus, 4 µg/mL (≈ 9.65 µM); with Streptococcus it was 4 µg/mL (≈ 9.65 µM).

In the case of `CC(=O)NC[C@H]1CN(c2ccc(N3CCN(S(=O)(=O)c4ccccc4[N+](=O)[O-])CC3)c(F)c2)C(=O)O1`, the minimum inhibitory concentration (MIC) in test [1] turned out to be 4 µg/mL (≈ 7.67 µM); in the test with Streptococcus pneumoniae it was 8 µg/mL (≈ 15.3 µM); in the test with Staphylococcus aureus, 8 µg/mL (≈ 15.3 µM); against Streptococcus it was 8 µg/mL (≈ 15.3 µM).

`CC(=O)NC[C@H]1CN(c2ccc(N3CCN(S(=O)(=O)c4ccc([N+](=O)[O-])cc4)CC3)c(F)c2)C(=O)O1`: the minimal inhibitory concentration (MIC) was found to be 8 µg/mL (≈ 15.3 µM) in test [1]; 128 µg/mL (≈ 245 µM) against Streptococcus pneumoniae; 32 µg/mL (≈ 61.4 µM) with Staphylococcus hominis; 128 µg/mL (≈ 245 µM) against Staphylococcus aureus; 128 µg/mL (≈ 245 µM) against Streptococcus.

As for `CC(=O)NC[C@H]1CN(c2ccc(N3CCN(S(=O)(=O)c4ccc(NC(C)=O)cc4)CC3)c(F)c2)C(=O)O1`, the minimum inhibitory concentration (MIC) was 1 µg/mL (≈ 1.87 µM) in test [1]; 32 µg/mL (≈ 60 µM) in the test with Streptococcus pneumoniae; 4 µg/mL (≈ 7.5 µM) against Staphylococcus hominis; 32 µg/mL (≈ 60 µM) against Staphylococcus aureus; 32 µg/mL (≈ 60 µM) against Streptococcus.

As for `CC(=O)NC[C@H]1CN(c2ccc(N3CCN(S(=O)(=O)c4cccs4)CC3)c(F)c2)C(=O)O1`, the minimum inhibitory concentration (MIC) in test [1] was found to be 4 µg/mL (≈ 8.29 µM); against Streptococcus pneumoniae it was 4 µg/mL (≈ 8.29 µM); in the test on Staphylococcus aureus it was 16 µg/mL (≈ 33.2 µM); with Streptococcus, 4 µg/mL (≈ 8.29 µM).

Turning to `CC(=O)NC[C@H]1CN(c2ccc(N3CCN(S(=O)(=O)c4ccccc4N)CC3)c(F)c2)C(=O)O1`, the MIC turned out to be 4 µg/mL (≈ 8.14 µM) in test [1], 2 µg/mL (≈ 4.07 µM) against Streptococcus pneumoniae, 8 µg/mL (≈ 16.3 µM) with Staphylococcus aureus and 2 µg/mL (≈ 4.07 µM) in the test on Streptococcus.

As to `CC(=O)NC[C@H]1CN(c2ccc(N3CCN(S(=O)(=O)c4ccc(C)cc4)CC3)c(F)c2)C(=O)O1`, the MIC in test [1] is 4 µg/mL (≈ 8.15 µM); in the test with Streptococcus pneumoniae it was more than 128 µg/mL; against Staphylococcus hominis, 64 µg/mL (≈ 130 µM); with Staphylococcus aureus, 128 µg/mL (≈ 261 µM); against Streptococcus, 128 µg/mL (≈ 261 µM).

As to `CC(=O)NC[C@H]1CN(c2ccc(N3CCN(S(=O)(=O)c4ccc(N)cc4)CC3)c(F)c2)C(=O)O1`, the MIC came out at 0.25 µg/mL (≈ 0.509 µM) in test [1]; 16 µg/mL (≈ 32.6 µM) against Streptococcus pneumoniae; 0.25 µg/mL (≈ 0.509 µM) in the test with Staphylococcus hominis; 16 µg/mL (≈ 32.6 µM) against Staphylococcus aureus; 16 µg/mL (≈ 32.6 µM) against Streptococcus.

For the compound `CC(=O)NC[C@H]1CN(c2ccc(N3CCN(S(=O)(=O)c4ccc(Br)cc4)CC3)c(F)c2)C(=O)O1`, the MIC in test [1] is 128 µg/mL (≈ 230 µM); in the test with Streptococcus pneumoniae, more than 128 µg/mL; in the test on Staphylococcus hominis it was more than 128 µg/mL; against Staphylococcus aureus, more than 128 µg/mL; against Streptococcus, more than 128 µg/mL.

For `CC(=O)NC[C@H]1CN(c2ccc(N3CCN(S(=O)(=O)c4cccc(N)c4)CC3)c(F)c2)C(=O)O1`, the MIC in test [1] amounted to 0.25 µg/mL (≈ 0.509 µM); against Streptococcus pneumoniae it was 1 µg/mL (≈ 2.03 µM); with Staphylococcus hominis, 0.25 µg/mL (≈ 0.509 µM); against Staphylococcus aureus, 0.5 µg/mL (≈ 1.02 µM); with Streptococcus, 1 µg/mL (≈ 2.03 µM).

With `CC(=O)NC[C@H]1CN(c2ccc(N3CCN(S(=O)(=O)c4cccc([N+](=O)[O-])c4)CC3)c(F)c2)C(=O)O1`, the MIC in test [1] was determined as 0.25 µg/mL (≈ 0.479 µM); in the test on Streptococcus pneumoniae it was 1 µg/mL (≈ 1.92 µM); against Staphylococcus hominis it was 0.5 µg/mL (≈ 0.959 µM); against Staphylococcus aureus, 4 µg/mL (≈ 7.67 µM); in the test on Streptococcus, 4 µg/mL (≈ 7.67 µM).

For the compound `COc1ccc(S(=O)(=O)N2CCN(c3ccc(N4C[C@H](CNC(C)=O)OC4=O)cc3F)CC2)cc1`, the MIC in test [1] came to 0.5 µg/mL (≈ 0.987 µM); in the test with Streptococcus pneumoniae, 8 µg/mL (≈ 15.8 µM); with Staphylococcus hominis, 2 µg/mL (≈ 3.95 µM); in the test with Staphylococcus aureus it was 16 µg/mL (≈ 31.6 µM); in the test with Streptococcus it was 16 µg/mL (≈ 31.6 µM).

Regarding `CC(=O)NC[C@H]1CN(c2ccc(N3CCOCC3)c(F)c2)C(=O)O1` [LINEZOLID], the MIC in test [1] came to 0.5 µg/mL (≈ 1.48 µM); in the test on Staphylococcus hominis, 1 µg/mL (≈ 2.96 µM); against Streptococcus, 2 µg/mL (≈ 5.93 µM).

Turning to `CC(=O)NC[C@H]1CN(c2ccc(N3CCN(S(=O)(=O)c4cccc(NC(C)=O)c4)CC3)c(F)c2)C(=O)O1`, the MIC (in test [1]; with Streptococcus pneumoniae; against Staphylococcus hominis; against Staphylococcus aureus; against Streptococcus) was more than 128 µg/mL each time.

Take `CC(=O)NC[C@H]1CN(c2ccc(N3CCN(S(=O)(=O)c4ccccc4)CC3)c(F)c2)C(=O)O1`: the MIC in test [1] was 0.25 µg/mL (≈ 0.525 µM); in the test with Streptococcus pneumoniae it was 2 µg/mL (≈ 4.2 µM); in the test with Staphylococcus hominis it was 1 µg/mL (≈ 2.1 µM); in the test with Staphylococcus aureus, 4 µg/mL (≈ 8.39 µM); against Streptococcus it was 4 µg/mL (≈ 8.39 µM).

A word on the MIC: it is the least concentration at which growth counts as inhibited. A higher MIC goes with a less susceptible organism.
